# Laboratory results as given in ChEMBL document CHEMBL1201862, “PubChem BioAssay data set” (2004).
# Counter-ions that a name gives are not always drawn. Calls of active or inactive are those of the source.
# How the values were obtained:
# [1] = molecular target: Luciferin 4-monooxygenase (Photinus pyralis, UniProt P08659); assay: firefly luciferase enzyme inhibitors, dose response, biochemical, luminescence (AID 1891)
# [2] = Luminescence Cell-Based Dose Confirmation HTS to Identify Inhibitors of Platelet Dense Granule Release. [Related pubchem assays: 1663 (Primary HTS), 1678 (Summary of Project)]; assay type: functional
# [3] = HEK293T cytotoxicity, dose response, cytotoxicity control for miR-122 modulator project, cell-based, inhibitor set, cherry-pick, set 2 (AID 720697); assay type: functional
# [4] = molecular target: T1, Ubiquitin-conjugating enzyme E2 N (Homo sapiens, UniProt P61088); assay type: functional;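 also: Dose-response confirmation in a TR-FRET assay detecting UBC13-driven polyubiquitin chain formation, inhibition measured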
# T1 sequence (P61088 whole entry): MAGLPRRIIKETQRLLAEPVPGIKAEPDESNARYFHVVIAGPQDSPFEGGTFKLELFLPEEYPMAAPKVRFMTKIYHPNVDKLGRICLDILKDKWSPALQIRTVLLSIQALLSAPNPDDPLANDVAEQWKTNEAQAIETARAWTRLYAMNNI
# cells [5] = assay type: functional, cell-based
# cells [6] = assay type: functional, cell-based; remark: listed apart in the source
# Caspase-6 = molecular target: T2, Caspase-6 (Homo sapiens, UniProt P55212); assay: human caspase-6 inhibitors, dose response, biochemical, VEID-R110 fluorescence, cherry-pick (AID 720632)
# T2 sequence (P55212 whole entry): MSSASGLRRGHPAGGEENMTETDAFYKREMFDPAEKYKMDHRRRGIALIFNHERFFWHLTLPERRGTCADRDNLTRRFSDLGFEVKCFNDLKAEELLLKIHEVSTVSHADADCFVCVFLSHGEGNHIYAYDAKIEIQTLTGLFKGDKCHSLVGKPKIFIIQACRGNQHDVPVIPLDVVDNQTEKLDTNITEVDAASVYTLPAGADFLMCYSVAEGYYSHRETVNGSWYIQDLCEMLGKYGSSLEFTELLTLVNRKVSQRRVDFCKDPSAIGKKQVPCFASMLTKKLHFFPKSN
# [7] = molecular target: T3, Mannose-6-phosphate isomerase (Homo sapiens, UniProt P34949); assay: human PMI inhibitors, high substrate, primary screen, biochemical, fluorescence intensity, high mannose 6-phosphate (AID 1220)
# T3 sequence (P34949 whole entry): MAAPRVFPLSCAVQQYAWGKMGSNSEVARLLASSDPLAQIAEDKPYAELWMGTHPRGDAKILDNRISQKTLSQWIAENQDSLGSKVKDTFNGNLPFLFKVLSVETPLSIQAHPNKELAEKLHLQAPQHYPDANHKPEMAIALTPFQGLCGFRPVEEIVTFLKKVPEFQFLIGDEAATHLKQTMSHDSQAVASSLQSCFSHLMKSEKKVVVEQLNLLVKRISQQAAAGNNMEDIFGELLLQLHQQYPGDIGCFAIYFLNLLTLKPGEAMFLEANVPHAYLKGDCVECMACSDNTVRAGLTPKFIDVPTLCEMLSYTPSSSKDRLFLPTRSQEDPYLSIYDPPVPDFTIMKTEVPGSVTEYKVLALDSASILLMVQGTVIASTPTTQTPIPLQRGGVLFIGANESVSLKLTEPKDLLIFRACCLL
# [8] = molecular target: T4, Carboxy-terminal domain RNA polymerase II polypeptide A small phosphatase 1 (Homo sapiens, UniProt Q9GZU7); assay: inhibitors of CTDSP1, concentration-response testing, biochemical assay, absorbance-based, actives from ultra-high-throughput screening (AID 540297); assay type: functional
# T4 sequence (Q9GZU7 whole entry): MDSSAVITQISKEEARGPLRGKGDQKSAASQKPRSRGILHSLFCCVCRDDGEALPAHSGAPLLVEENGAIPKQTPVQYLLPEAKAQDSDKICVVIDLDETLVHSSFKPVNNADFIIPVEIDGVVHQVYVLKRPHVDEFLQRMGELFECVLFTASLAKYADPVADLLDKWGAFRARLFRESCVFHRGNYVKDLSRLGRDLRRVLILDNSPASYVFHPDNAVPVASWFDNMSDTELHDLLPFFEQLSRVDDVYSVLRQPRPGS
# [9] = molecular target: T5, RNA-binding protein pos-1 (Caenorhabditis elegans, UniProt G5EF15); assay: inhibitors of POS-1/mex-3 RNA binding, dose response, biochemical, fluorescence polarization (AID 1964);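 also: purified POS-1 fused to maltose binding protein made in E. coli; potency of compounds blocking POS-1 binding to fluorescent RNA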
# T5 sequence (G5EF15 whole entry): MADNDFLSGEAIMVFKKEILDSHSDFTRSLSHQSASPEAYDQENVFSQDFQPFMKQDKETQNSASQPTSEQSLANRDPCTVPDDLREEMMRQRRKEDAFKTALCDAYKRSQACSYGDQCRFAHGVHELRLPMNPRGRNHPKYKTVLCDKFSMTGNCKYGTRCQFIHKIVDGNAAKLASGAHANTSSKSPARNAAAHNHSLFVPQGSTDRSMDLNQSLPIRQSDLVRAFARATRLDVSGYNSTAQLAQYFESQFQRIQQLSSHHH
# [10] = molecular target: T6, Zinc finger protein mex-5 (Caenorhabditis elegans, UniProt Q9XUB2); assay: MEX-5/TCR-2 RNA interaction inhibitors, dose response, biochemical, C. elegans, fluorescence polarization (AID 1960)
# T6 sequence (Q9XUB2 whole entry): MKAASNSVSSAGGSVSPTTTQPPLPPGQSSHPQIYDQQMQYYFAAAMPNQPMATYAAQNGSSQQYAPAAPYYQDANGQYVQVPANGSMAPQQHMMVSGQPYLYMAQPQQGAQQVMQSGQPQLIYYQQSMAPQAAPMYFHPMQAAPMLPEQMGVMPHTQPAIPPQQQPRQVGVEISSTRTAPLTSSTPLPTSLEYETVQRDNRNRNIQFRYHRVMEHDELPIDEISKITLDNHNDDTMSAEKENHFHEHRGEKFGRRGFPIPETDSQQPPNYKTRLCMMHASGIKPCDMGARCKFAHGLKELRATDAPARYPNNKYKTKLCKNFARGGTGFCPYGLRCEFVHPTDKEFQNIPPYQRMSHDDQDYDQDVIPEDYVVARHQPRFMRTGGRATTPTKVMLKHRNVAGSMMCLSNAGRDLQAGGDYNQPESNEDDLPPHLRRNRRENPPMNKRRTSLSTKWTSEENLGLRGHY
# [11] = P. falciparum Dd2 growth inhibitors, dose response, SYBR Green, cherry-picked samples (AID 1159567); assay type: functional, cell-based
# H9c2 = assay: cells; assay type: functional, cell-based; conditions: Rattus norvegicus, H9c2, Myocardium;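 also: confirmatory concentration-response retest of ultra-high-throughput screening hits for modulation of myocardial damage; cell death induced by hydrogen peroxide oxidative stress; compound pretreatment for 60 min then peroxide exposure for 2 h; potency is for protecting the cells against peroxide damage rather than for killing them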
# [12] = molecular target: T7, Corticotropin-releasing factor receptor 2/Corticotropin-releasing factor-binding protein (Homo sapiens, UniProt P24387+Q13324); assay: Dose Response confirmation of uHTS hits for small molecule antagonists of the CRF-binding protein and CRF-R2 receptor complex.; assay type: functional; conditions: read-out: IC50_Mean
# T7 sequence (Q13324 whole entry): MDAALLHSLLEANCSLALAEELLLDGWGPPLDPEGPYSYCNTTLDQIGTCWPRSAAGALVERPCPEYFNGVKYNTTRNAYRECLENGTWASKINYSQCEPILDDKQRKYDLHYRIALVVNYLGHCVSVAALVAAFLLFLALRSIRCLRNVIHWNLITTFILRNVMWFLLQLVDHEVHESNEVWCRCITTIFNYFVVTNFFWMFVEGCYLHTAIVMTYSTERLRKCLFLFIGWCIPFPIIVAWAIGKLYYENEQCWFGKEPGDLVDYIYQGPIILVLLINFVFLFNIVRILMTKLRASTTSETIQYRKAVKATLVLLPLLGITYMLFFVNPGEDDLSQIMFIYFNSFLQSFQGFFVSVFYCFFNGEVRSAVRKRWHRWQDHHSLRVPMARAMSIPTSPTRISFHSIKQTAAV
# T7 sequence (P24387 whole entry): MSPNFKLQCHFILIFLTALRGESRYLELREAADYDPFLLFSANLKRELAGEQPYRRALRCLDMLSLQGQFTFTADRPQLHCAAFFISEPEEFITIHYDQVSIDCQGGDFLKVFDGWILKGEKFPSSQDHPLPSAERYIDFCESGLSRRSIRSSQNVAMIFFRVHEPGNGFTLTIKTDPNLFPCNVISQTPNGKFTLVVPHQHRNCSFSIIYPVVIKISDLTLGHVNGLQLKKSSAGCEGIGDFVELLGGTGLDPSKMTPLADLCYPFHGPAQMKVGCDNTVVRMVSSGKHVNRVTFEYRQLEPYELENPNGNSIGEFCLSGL
# [13] = molecular target: T7, Corticotropin-releasing factor receptor 2/Corticotropin-releasing factor-binding protein; assay: activators of CRF receptor 2 with binding protein – uHTS hits, confirmation (AID 602473); assay type: functional; conditions: read-out: EC50_Mean
# Fatty acid synthase [14] = molecular target: T8, Fatty acid synthase (Homo sapiens, UniProt P49327); assay: FAS thioesterase domain inhibitors, dose response, biochemical, endpoint fluorescence intensity, uHTS hits (AID 624327); assay type: functional;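 also: fluorescence from hydrolysis of an O-methyl fluorescein acyl ester substrate by the enzyme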
# Fatty acid synthase [15] = molecular target: T8, Fatty acid synthase; assay: FAS thioesterase domain inhibitors, dose response, biochemical, kinetic fluorescence intensity (AID 624326); assay type: functional;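 also: rate of fluorescence rise from hydrolysis of a fluorogenic O-methyl fluorescein ester substrate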
# Cytochrome P450 2C9 = Cytochrome P450 2C9 (Homo sapiens, UniProt P11712)
# [16] = molecular target: T9, DNA repair protein RAD52 homolog (Homo sapiens, UniProt P43351); assay type: functional, biochemical
# T9 sequence (P43351 whole entry): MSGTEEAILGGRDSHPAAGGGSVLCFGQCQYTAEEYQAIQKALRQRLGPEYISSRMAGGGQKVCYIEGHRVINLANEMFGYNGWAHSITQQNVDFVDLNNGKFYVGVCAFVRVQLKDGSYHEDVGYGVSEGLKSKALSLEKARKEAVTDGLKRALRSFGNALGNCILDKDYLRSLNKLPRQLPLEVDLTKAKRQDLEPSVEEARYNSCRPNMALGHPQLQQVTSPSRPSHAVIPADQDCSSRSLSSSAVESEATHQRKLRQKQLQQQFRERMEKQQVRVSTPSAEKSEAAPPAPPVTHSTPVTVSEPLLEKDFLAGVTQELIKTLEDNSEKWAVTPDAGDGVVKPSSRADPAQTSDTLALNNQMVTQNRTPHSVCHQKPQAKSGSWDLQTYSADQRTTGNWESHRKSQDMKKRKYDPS
# Sequence of Luciferin 4-monooxygenase (P08659 whole entry): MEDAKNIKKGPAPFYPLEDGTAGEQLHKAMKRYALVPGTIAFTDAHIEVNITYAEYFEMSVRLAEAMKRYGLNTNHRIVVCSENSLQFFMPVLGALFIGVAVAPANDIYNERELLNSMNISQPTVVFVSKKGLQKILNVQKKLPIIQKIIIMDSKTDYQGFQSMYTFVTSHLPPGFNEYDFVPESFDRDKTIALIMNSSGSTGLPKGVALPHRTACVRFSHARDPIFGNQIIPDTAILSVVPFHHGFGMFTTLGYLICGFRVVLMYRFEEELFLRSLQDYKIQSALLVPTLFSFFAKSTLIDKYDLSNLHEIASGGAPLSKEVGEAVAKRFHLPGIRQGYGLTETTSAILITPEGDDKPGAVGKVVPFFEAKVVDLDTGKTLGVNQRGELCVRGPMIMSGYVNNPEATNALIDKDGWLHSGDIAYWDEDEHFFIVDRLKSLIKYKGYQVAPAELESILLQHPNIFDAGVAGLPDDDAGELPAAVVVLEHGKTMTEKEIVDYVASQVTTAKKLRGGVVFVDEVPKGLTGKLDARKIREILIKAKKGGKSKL
# T8 sequence (P49327 whole entry, the tested form may be a part): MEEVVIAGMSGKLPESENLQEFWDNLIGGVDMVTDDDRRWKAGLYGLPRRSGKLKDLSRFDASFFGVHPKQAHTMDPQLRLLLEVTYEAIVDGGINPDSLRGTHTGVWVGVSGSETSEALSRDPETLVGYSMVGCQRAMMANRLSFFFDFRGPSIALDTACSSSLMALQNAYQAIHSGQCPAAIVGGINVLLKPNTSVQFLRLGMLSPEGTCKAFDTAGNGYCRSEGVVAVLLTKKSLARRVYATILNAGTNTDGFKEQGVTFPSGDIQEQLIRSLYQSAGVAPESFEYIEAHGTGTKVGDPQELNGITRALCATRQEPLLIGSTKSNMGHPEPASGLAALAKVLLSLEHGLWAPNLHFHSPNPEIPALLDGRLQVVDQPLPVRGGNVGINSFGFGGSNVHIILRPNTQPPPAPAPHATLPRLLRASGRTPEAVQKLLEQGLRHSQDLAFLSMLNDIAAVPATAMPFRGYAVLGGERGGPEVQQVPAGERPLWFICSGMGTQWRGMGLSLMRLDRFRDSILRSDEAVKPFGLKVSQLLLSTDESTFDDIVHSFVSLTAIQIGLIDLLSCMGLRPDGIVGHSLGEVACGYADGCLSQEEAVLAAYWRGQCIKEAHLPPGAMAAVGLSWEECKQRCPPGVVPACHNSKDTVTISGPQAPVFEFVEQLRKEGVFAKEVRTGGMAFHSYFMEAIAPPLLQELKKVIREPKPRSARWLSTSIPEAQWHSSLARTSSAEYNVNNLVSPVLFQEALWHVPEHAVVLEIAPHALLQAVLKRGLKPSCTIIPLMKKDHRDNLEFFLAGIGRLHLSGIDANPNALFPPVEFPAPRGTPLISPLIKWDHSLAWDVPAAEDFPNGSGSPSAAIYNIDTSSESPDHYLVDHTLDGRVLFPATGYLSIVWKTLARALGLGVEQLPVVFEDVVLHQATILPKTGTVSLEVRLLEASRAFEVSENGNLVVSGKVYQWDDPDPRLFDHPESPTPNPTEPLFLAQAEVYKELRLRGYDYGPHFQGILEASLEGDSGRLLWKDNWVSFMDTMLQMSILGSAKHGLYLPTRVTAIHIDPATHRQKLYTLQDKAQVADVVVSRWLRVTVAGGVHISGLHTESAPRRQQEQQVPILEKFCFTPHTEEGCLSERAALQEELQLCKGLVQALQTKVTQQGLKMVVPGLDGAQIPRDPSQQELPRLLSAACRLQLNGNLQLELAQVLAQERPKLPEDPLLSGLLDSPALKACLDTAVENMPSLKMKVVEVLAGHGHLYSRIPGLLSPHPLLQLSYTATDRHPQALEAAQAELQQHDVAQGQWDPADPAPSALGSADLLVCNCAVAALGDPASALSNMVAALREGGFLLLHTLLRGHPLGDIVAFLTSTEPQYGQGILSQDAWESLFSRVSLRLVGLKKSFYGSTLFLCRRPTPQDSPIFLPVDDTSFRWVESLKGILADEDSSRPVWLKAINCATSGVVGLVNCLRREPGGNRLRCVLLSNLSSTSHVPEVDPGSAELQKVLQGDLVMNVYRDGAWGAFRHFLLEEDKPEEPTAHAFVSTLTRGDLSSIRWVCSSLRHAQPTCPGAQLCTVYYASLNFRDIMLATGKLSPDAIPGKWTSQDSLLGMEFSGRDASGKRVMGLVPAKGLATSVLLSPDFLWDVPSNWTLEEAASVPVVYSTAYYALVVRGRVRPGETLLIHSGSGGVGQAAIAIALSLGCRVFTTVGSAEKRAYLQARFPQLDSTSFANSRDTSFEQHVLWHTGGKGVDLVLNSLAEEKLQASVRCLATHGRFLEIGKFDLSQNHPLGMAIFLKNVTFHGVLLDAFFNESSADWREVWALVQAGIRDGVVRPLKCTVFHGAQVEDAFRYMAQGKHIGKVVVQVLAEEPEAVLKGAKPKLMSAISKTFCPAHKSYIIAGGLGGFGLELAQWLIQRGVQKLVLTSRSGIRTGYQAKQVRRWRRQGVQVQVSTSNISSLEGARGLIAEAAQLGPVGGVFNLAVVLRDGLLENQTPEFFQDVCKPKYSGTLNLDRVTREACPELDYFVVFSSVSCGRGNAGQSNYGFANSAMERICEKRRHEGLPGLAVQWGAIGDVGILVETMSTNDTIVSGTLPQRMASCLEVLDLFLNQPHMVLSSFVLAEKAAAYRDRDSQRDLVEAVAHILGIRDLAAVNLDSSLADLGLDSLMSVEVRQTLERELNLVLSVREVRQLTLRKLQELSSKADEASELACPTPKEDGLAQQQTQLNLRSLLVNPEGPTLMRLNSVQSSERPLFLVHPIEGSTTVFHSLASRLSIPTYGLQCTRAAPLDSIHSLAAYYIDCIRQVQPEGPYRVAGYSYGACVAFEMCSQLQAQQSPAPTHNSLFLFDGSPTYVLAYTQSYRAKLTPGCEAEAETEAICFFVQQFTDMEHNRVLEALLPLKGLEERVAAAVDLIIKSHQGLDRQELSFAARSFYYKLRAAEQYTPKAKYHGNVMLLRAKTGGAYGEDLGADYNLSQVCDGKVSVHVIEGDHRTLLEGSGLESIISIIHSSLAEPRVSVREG
# Sequence of Cytochrome P450 2C9 (P11712 whole entry): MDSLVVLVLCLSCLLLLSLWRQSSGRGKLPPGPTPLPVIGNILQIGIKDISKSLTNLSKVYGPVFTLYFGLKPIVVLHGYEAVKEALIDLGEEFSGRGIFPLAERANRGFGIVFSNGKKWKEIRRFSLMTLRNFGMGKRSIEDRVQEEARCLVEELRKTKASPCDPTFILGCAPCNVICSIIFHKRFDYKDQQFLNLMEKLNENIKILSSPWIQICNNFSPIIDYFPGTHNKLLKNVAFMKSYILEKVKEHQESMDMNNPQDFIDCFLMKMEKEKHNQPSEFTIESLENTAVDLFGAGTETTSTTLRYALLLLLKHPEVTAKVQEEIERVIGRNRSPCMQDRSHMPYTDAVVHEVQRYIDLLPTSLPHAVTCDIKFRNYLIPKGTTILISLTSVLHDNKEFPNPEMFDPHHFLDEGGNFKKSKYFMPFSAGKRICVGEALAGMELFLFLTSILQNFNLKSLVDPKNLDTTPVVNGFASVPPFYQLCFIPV
smiles,measurement,setting,value
Cc1nc2cc(NC(=O)Nc3ccccc3Cl)ccc2n1C,EC50,[1],5.05 µM (active)
same,EC50,[2],5.86 µM (active)
CCC(=O)N1[C@H](CN(C)C(C)=O)[C@H](c2ccc(-c3cccnc3)cc2)[C@@H]1CO,AC50,[3],0.561 µM (active)
CCOC(=O)CCCSc1nnc(CCCCCN2C(=O)c3cccc4cccc(c34)C2=O)o1,IC50,[4],> 20 µM (inactive)
Cc1ccc(S(=O)(=O)NC2=NC(=O)/C(=C/c3cc([N+](=O)[O-])ccc3O)S2)cc1,EC50,cells [5],> 350 µM (not active)
same,EC50,cells [6],53.1 µM (active)
same,AC50,Caspase-6,10.7 µM (active)
CCN(C(=S)Nc1cccnc1)c1cccc2ccccc12,IC50,[7],> 50 µM (not active)
COCCN1C(=O)c2oc3ccccc3c(=O)c2C1c1ccc(OC)c(OC)c1 (stereo not drawn),IC50,[8],5.26 µM (active)
Fc1ccccc1Nc1nc2c(s1)CCc1ccccc1-2,IC50,[7],> 50 µM (not active)
Cc1cc(/C=C2\C(=O)NC(=O)N(c3ccc(Cl)cc3)C2=O)c(C)n1-c1cccc(C(=O)O)c1,EC50,[9],> 300 µM (not active)
same,EC50,[10],65.9 µM (active)
same,IC50,[8],9.6 µM (active)
CCC1(c2ccccc2)NC(=O)N(CC(=O)Nc2cc(Cl)ccc2N2CCN(C)CC2)C1=O (stereo not drawn),IC50,[4],> 20 µM (inactive)
O=C(COC(=O)c1cccnc1Cl)NCc1ccco1,IC50,[8],12.4 µM (active)
CCC(=O)/N=c1\sc2cc(F)cc(F)c2n1C,EC50,[1],> 112 µM (not active)
same,EC50,[2],> 112 µM (not active)
O=C(C[C@H]1C[C@@H]2c3cc(NC(=O)Nc4ccccc4)ccc3O[C@@H]2[C@H](CO)O1)NCc1ccccc1,AC50,[11],12.4 µM (active)
CN1CCN(/C=C2\SC(=S)NC2=O)CC1,EC50,[1],> 112 µM (not active)
same,EC50,[2],> 112 µM (not active)
O=C/C(=C\Nc1ccccn1)c1nc2cc(Cl)ccc2o1,EC50,[9],67.7 µM (active)
same,EC50,[10],36.4 µM (active)
same,IC50,H9c2,> 79 µM (inactive)
same,IC50,[12],> 47.1 µM (inactive)
same,EC50,[13],> 53 µM (inactive)
Oc1ccc(/C=N/N(Cc2ccccc2)c2ccccc2)c(O)c1O,IC50,[7],> 50 µM (not active)
Cc1cc(C)cc(NC(=O)c2cc(S(=O)(=O)N3CCCC3)cn2C)c1,EC50,[1],> 112 µM (not active)
same,EC50,[2],> 112 µM (not active)
CC1(C(=O)NS(=O)(=O)c2ccc(C#N)cc2)CCN1C(=O)Cc1ccc(Cl)cc1Cl (stereo not drawn),IC50,Fatty acid synthase [14],10.1 µM (active)
same,IC50,Fatty acid synthase [15],5.77 µM (active)
CC(C)n1c(NCc2cc(Cl)ccc2O)nc2ccccc21,IC50,[4],> 20 µM (inactive)
Cc1c(C(=O)O)c(C(=O)O)nc2ccc(N3CCOCC3)cc12,IC50,[7],> 50 µM (not active)
Cc1cc(Cl)ccc1NC(=O)COC(=O)c1cc([N+](=O)[O-])ccc1N1CCOCC1,IC50,Fatty acid synthase [14],2.55 µM (active)
same,IC50,Fatty acid synthase [15],2.13 µM (active)
O=C(Nc1cccc([N+](=O)[O-])c1)N1CCc2ccccc2C1,IC50,Fatty acid synthase [14],8.71 µM (active)
same,IC50,Fatty acid synthase [15],6.26 µM (active)
O=C(Cc1ccc(-n2c(=O)c3ccccc3n(Cc3ccc(F)cc3)c2=O)cc1)NCC1CCCO1 (stereo not drawn),EC50,[1],> 112 µM (not active)
same,EC50,[2],> 112 µM (not active)
C[N+]1(CCOc2ccc([N+](=O)[O-])cc2)CCOCC1.[I-],IC50,[8],4.86 µM (active)
same,AC50,Cytochrome P450 2C9,inconclusive
COc1ccc(-c2cc3ccccc3oc2=O)cc1NC(=S)NC(=O)c1ccc2c(c1)OCCO2,IC50,[4],> 20 µM (inactive)
CSc1ccc2c(c1)C(N1CCN(C)CC1)Cc1ccccc1S2 (stereo not drawn) [METHIOTHEPIN MESYLATE],IC50,[4],> 20 µM (inactive)
same,AC50,[16],18.7 µM (active)
CCCNC(=O)Nc1ccc2c(c1)C(=O)N(C)[C@@H]1CC[C@@H](CC(=O)NCC3CCCCC3)O[C@H]1CO2,AC50,[3],2.28 µM (active)
COC(=O)c1cc(C(=O)OCC(=O)NC2CCCC2)cc([N+](=O)[O-])c1,IC50,Fatty acid synthase [14],8.82 µM (active)
same,IC50,Fatty acid synthase [15],9.42 µM (active)
O=C1CC(c2cccc([N+](=O)[O-])c2)c2cc3c(cc2N1)CCC3 (stereo not drawn),IC50,Fatty acid synthase [14],10.9 µM (active)
same,IC50,Fatty acid synthase [15],15.9 µM (active)
